Reference: patent US12396458B2, “Fused ring substituted aromatic compound and preparation method therefor, herbicidal composition, and use thereof” (Qingdao Kingagroot Chemical Compound Co., Ltd., priority 2020, dated 2025)

How the values were obtained:
Assay in all cases: Weeding effect in post-emergence stage (greenhouse pot test)
Type in all cases: in vivo
[1] = test system: Conyza japonica; conditions: post-emergence, 3 weeks after application, fresh weight control rate
Source text: (§1) The activity level criteria for plant damage (i.e., growth control rate) are as follows:
(§2) Level 5: growth control rate is above 85%; • Level 4: growth control rate is greater than or equal to 60% and less than 85%; • Level 3: growth control rate is greater than or equal to 40% and less than 60%; • Level 2: growth control rate is greater than or equal to 20% and less than 40%; • Level 1: growth control rate is greater than or equal to 5% and less than 20%; • Level 0: growth control rate is less than 5%.
(§3) The above growth control rates are fresh weight control rates.
(§4) Experiment on weeding effect in post-emergence stage:
(§5) Monocotyledonous and dicotyledonous weed seeds (Descurainia sophia, Capsella bursa-pastoris, Abutilon theophrasti, Galium aparine, Stellaria media, Lithospermum arvense, Rorippa indica, Alopecurus aequalis, Alopecurus japonicus, Eleusine indica, Beckmannia syzigachne, Sclerochloa dura, Phleum paniculatum, Veronica didyma Tenore, Bromus japonicus, Aegilops tauschii, Phalaris arundinacea, Amaranthus retrojlexus, Chenopodiaceae, Commelina communis, Sonchus arvensis, convolvulus arvensis, Cirsium setosum, Solanum nigrum, Acalypha australis, Digitaria sanguinalis, Echinochloa crusgalli, Setaria viridis, Setaria glauca, Leptochloa chinensis, Monochoria vaginalis, Sagittaria trifolia, Scirpus juncoides, Cyperus rotundus, Cyperus iria, Cyperus difformis, Fimbristylis, Portulaca oleracea, Xanthium sibiricum, Pharbitis nil, Conyza japonica, etc.) and major crop seeds (wheat, corn, rice, soybean, cotton, oilseed rape, millet, sorghum, potato, sesame, ricinus, etc.) were placed in plastic pots filled with soil, then covered with 0.5-2 cm of soil, allowed to grow in a good greenhouse environment. After 2 weeks of sowing, the test plants were treated in the 2-3 leaf stage. The tested compounds of the present invention were respectively dissolved in acetone, then added with Tween 80 and 1.5 liter/ha of emulsifiable concentrate of methyl oleate as synergist, diluted with a certain amount of water to obtain a solution with a certain concentration, and sprayed with a spray tower onto the plants. After the application, the plants were cultured for 3 weeks in the greenhouse, and then the experimental results of the weeding were counted. The doses of the used compounds were 500, 250, 125, 60, 15, 7.5 g a.i./ha, and the averages were obtained by repeating for three times.

[2] = test system: Capsella bursa-pastoris; conditions: 3 weeks after application, fresh weight control rate
Source text: as §1, §2, §3, §4, §5

[3] = test system: Beckmannia syzigachne; conditions: 3 weeks after application, fresh weight control rate
Source text: as §1, §2, §3, §4, §5

[4] = test system: Alopecurus japonicus; conditions: 3 weeks after application, fresh weight control rate
Source text: as §1, §2, §3, §4, §5

| Compound | Activity level (growth control rate), Conyza japonica ([1]; dose 15 g a.i./ha) | Activity level (growth control rate), Capsella bursa-pastoris ([2]; dose 15 g a.i./ha) | Activity level (growth control rate), Beckmannia syzigachne ([3]; dose 15 g a.i./ha) | Activity level (growth control rate), Alopecurus japonicus ([4]; dose 15 g a.i./ha) | Activity level (growth control rate), Conyza japonica ([1]; dose 125 g a.i./ha) | Activity level (growth control rate), Capsella bursa-pastoris ([2]; dose 125 g a.i./ha) | Activity level (growth control rate), Beckmannia syzigachne ([3]; dose 125 g a.i./ha) | Activity level (growth control rate), Alopecurus japonicus ([4]; dose 125 g a.i./ha) |
| --- | --- | --- | --- | --- | --- | --- | --- | --- |
| CC(C)OC(=O)C12CCCC1C(c1cc(-n3c(=O)cc(C(F)(F)F)n(C)c3=O)c(F)cc1Cl)=NO2 (stereo not shown) [Compound 217] | 4 (Level 4: growth control rate is greater than or equal to 60% and less than 85%) | 5 (Level 5: growth control rate is above 85%) | 5 (Level 5: growth control rate is above 85%) | 5 (Level 5: growth control rate is above 85%) |  |  |  |  |
| COC(=O)C12CCCC1C(c1cc(-n3c(=O)cc(C(F)(F)F)n(C)c3=O)c(F)cc1Cl)=NO2 (stereo not shown) [Compound 214] | 5 (Level 5: growth control rate is above 85%) | 5 (Level 5: growth control rate is above 85%) | 5 (Level 5: growth control rate is above 85%) | 5 (Level 5: growth control rate is above 85%) |  |  |  |  |
| CCOC(=O)CCC12CCCC1C(c1cc(-n3c(=O)n(C)c(=S)n(C)c3=O)c(F)cc1Cl)=NO2 (stereo not shown) [Compound 530] |  |  |  |  | 4 (Level 4: growth control rate is greater than or equal to 60% and less than 85%) | 5 (Level 5: growth control rate is above 85%) | 4 (Level 4: growth control rate is greater than or equal to 60% and less than 85%) | 5 (Level 5: growth control rate is above 85%) |
| C#CCOC(=O)C12CCCC1C(c1cc(-n3c(=O)n(C)c(=S)n(C)c3=O)c(F)cc1Cl)=NO2 (stereo not shown) [Compound 13] | 4 (Level 4: growth control rate is greater than or equal to 60% and less than 85%) | 5 (Level 5: growth control rate is above 85%) | 5 (Level 5: growth control rate is above 85%) | 5 (Level 5: growth control rate is above 85%) |  |  |  |  |
| CCCOC(=O)C12CCCC1C(c1cc(-n3c(=O)cc(C(F)(F)F)n(C)c3=O)c(F)cc1Cl)=NO2 (stereo not shown) [Compound 216] | 4 (Level 4: growth control rate is greater than or equal to 60% and less than 85%) | 5 (Level 5: growth control rate is above 85%) | 5 (Level 5: growth control rate is above 85%) | 5 (Level 5: growth control rate is above 85%) |  |  |  |  |
| C#CCOC(=O)C12CCCC1C(c1cc(-n3c(=O)cc(C(F)(F)F)n(C)c3=O)c(F)cc1Cl)=NO2 (stereo not shown) [Compound 225] | 4 (Level 4: growth control rate is greater than or equal to 60% and less than 85%) | 5 (Level 5: growth control rate is above 85%) | 5 (Level 5: growth control rate is above 85%) | 5 (Level 5: growth control rate is above 85%) |  |  |  |  |
| C=CCOC(=O)C12CCCC1C(c1cc(-n3c(=O)n(C)c(=S)n(C)c3=O)c(F)cc1Cl)=NO2 (stereo not shown) [Compound 10] | 4 (Level 4: growth control rate is greater than or equal to 60% and less than 85%) | 5 (Level 5: growth control rate is above 85%) | 5 (Level 5: growth control rate is above 85%) | 5 (Level 5: growth control rate is above 85%) |  |  |  |  |
| CC(C)=NOC(=O)C12CCCC1C(c1cc(-n3c(=O)cc(C(F)(F)F)n(C)c3=O)c(F)cc1Cl)=NO2 (stereo not shown) [Compound 278] | 4 (Level 4: growth control rate is greater than or equal to 60% and less than 85%) | 5 (Level 5: growth control rate is above 85%) | 5 (Level 5: growth control rate is above 85%) | 5 (Level 5: growth control rate is above 85%) |  |  |  |  |
| CCOC(=O)C12ON=C(c3cc(-n4c(=O)cc(C(F)(F)F)n(C)c4=O)c(F)cc3Cl)C1CCC2C (stereo not shown) [Compound 476] | 4 (Level 4: growth control rate is greater than or equal to 60% and less than 85%) | 5 (Level 5: growth control rate is above 85%) | 5 (Level 5: growth control rate is above 85%) | 5 (Level 5: growth control rate is above 85%) |  |  |  |  |
| COC(=O)C12CCCC1C(c1cc(/N=c3\sc(=O)n4n3CCCC4)c(F)cc1Cl)=NO2 (stereo not shown) [Compound 575] | 4 (Level 4: growth control rate is greater than or equal to 60% and less than 85%) | 5 (Level 5: growth control rate is above 85%) |  | 4 (Level 4: growth control rate is greater than or equal to 60% and less than 85%) |  |  |  |  |
| COC(=O)C12CCCC1C(c1nc(-n3c(=O)cc(C(F)(F)F)n(C)c3=O)c(F)cc1Cl)=NO2 (stereo not shown) [Compound 521] | 4 (Level 4: growth control rate is greater than or equal to 60% and less than 85%) | 5 (Level 5: growth control rate is above 85%) | 5 (Level 5: growth control rate is above 85%) | 5 (Level 5: growth control rate is above 85%) |  |  |  |  |
| CCOCOC(=O)C12CCCC1C(c1cc(-n3c(=O)cc(C(F)(F)F)n(C)c3=O)c(F)cc1Cl)=NO2 (stereo not shown) [Compound 425] | 4 (Level 4: growth control rate is greater than or equal to 60% and less than 85%) | 5 (Level 5: growth control rate is above 85%) | 5 (Level 5: growth control rate is above 85%) | 5 (Level 5: growth control rate is above 85%) |  |  |  |  |
| COC(=O)C12CCCC1C(c1cc(-c3nnc(C(F)(F)F)cc3OC)c(F)cc1Cl)=NO2 (stereo not shown) [Compound 578] | 4 (Level 4: growth control rate is greater than or equal to 60% and less than 85%) | 5 (Level 5: growth control rate is above 85%) |  | 5 (Level 5: growth control rate is above 85%) |  |  |  |  |
| Cn1c(C(F)(F)F)cc(=O)n(-c2cc(C3=NOC4(C(=O)Oc5ccccc5)CCCC34)c(Cl)cc2F)c1=O (stereo not shown) [Compound 426] | 4 (Level 4: growth control rate is greater than or equal to 60% and less than 85%) | 5 (Level 5: growth control rate is above 85%) | 4 (Level 4: growth control rate is greater than or equal to 60% and less than 85%) | 5 (Level 5: growth control rate is above 85%) |  |  |  |  |
| COC(=O)C1CC2C(c3cc(-n4c(=O)cc(C(F)(F)F)n(C)c4=O)c(F)cc3Cl)=NOC2(C(=O)OC)C1 (stereo not shown) [Compound 464] |  | 5 (Level 5: growth control rate is above 85%) |  | 5 (Level 5: growth control rate is above 85%) |  |  |  |  |
| COC(=O)C12CCCC1C(c1cc(-c3nn(C)c(C(F)(F)F)cc3=O)c(F)cc1Cl)=NO2 (stereo not shown) [Compound 579] |  | 5 (Level 5: growth control rate is above 85%) |  | 4 (Level 4: growth control rate is greater than or equal to 60% and less than 85%) |  |  |  |  |
